Data published in PubChem BioAssay (NCI).
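Assay format: 96-well plates, 48-hour exposure. GI50 marks 50% less growth. At the TGI there is no net growth.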 Where a SMILES comes first, the peptide text is derived from it. The star is where a group is joined. Cbz = O=C(OCc1ccccc1)*; Boc = CC(C)(C)OC(=O)*; OBn = c1ccc(CO*)cc1

Assays:
Test in all cases: DTP human tumour cell line panel, 48 h
[1] = system: 786-0 renal
[2] = system: A498 renal
[3] = system: ACHN renal
[4] = system: MCF7 breast
[5] = system: SF-268 CNS
[6] = system: SF-295 CNS
[7] = system: SK-MEL-2 melanoma
[8] = system: SK-MEL-5 melanoma
[9] = system: SK-OV-3 ovarian

Structure (SMILES)	TGI [1] [µM]	TGI [2] [µM]	TGI [3] [µM]	TGI [4] [µM]	TGI [5] [µM]	TGI [6] [µM]	TGI [7] [µM]	TGI [8] [µM]	TGI [9] [µM]	GI50 [7] [µM]
COc1ccc(N=N/C(=N/NC(=O)c2ccccc2)c2ccc(N(CCC#N)CCC#N)cc2C)cc1	> 100	> 100	> 100	> 100	> 100	> 100	> 100	> 100	> 100	
CN(C)Cc1cc(O)c(O)c(CN(C)C)c1	> 100	> 100	> 100	> 100	> 100	> 100	> 100	> 100	> 100	
Oc1ccc(SCc2cc(O)c(O)c(O)c2)cc1	> 100	> 100	> 100	38.4	> 100	29.8	> 100	40.7	> 100	
Cc1[nH]c2ccccc2c1C=Nc1ccc(N=Cc2c(C)[nH]c3ccccc23)cc1	35.7	> 100	> 100	30.1	> 100	> 100	57.2	93.8	> 100	
CC[C@H](C)[C@H]1NC(=O)[C@@H](NC(=O)[C@@H](CC(C)C)N(C)CC2CCCN2C(=O)C(C)=O)[C@@H](C)OC(=O)[C@H](Cc2ccc(OC)cc2)N(C)C(=O)C2CCCN2C(=O)[C@H](CC(C)C)NC(=O)[C@@H](C)C(=O)[C@H](C(C)C)OC(=O)C[C@@H]1O (stereo not given in full)	0.0118	0.0146	0.0389	0.00747	0.0257	0.042	0.00703	0.00843	0.0194	
O=C1C(Br)=CC2(C=C1Br)CCNC1=C2C(=O)c2cccnc2C1=O	29.3		48.9	41.3	32.2	21	10.9	12.8	31.8	
CC(C)c1ccc(/C=C2\CSCC3=C2NC(=S)NC3c2ccc(C(C)C)cc2)cc1 (stereo not given)	> 100		> 100	> 100	> 100	> 100	> 100	99.5	> 100	
COC(=O)C(Cc1ccc(O)cc1)NC(=O)C(CC(=O)OCc1ccccc1)NC(=O)OCc1ccccc1 (stereo not given) (Cbz-Asp(OBn)-Tyr-OMe; configuration not given here)	32.1	62.4	34.8				34.8	34.1		
Cc1sc(/N=C/c2c[nH]c3ccccc23)c(C#N)c1C	> 100	96.7	> 100	> 100	> 100	> 100	> 100	53.2	> 100	
CSc1c(C#N)c(=O)[nH]c2n[nH]c(C)c12	> 100	> 100		> 100	> 100		> 100	> 100	> 100	
O=C(N/N=C/c1cc(Cl)cc(Cl)c1[O-])c1ccccc1O.O=C(N/N=C/c1cc(Cl)cc(Cl)c1[O-])c1ccccc1O.[Ni+2]			2.21		18.5	1.24	1.35	1.18	3.93	0.329
CN(NC(=O)CCCl)C1=NCCCCN1	> 100	> 100	> 100	> 100	> 100	> 100	> 100	> 100	> 100	
OC1(c2cc3ccccc3s2)CCCCC1	> 100	> 100	> 100	> 100	93.6	> 100		> 100	> 100	
CCCNC(C#N)c1ccc(C(C#N)NCCC)cc1 (stereo not given)	> 100	> 100	> 100		> 100	> 100	> 100	> 100	> 100	
[N-]=[N+]=NCc1cccc(Nc2cc(=O)[nH]c(=O)[nH]2)c1	> 100	> 100	> 100	> 100	> 100	> 100	> 100	> 100	> 100	
CC(=O)OC(OC(C)=O)n1cc(C=O)c2ccccc21		> 100	> 100	> 100		> 100	> 100	> 100	> 100	
O=C(OCc1ccccc1)C1(N2CN(C3(C(=O)OCc4ccccc4)CCCC3)CN(C3(C(=O)OCc4ccccc4)CCCC3)C2)CCCC1	> 10		> 10	> 10	> 10	> 10	> 10	> 10	> 10	
COc1ccc2c(c1)n([O-])c(C#N)c(N1CCN(c3ccc([N+](=O)[O-])cc3)CC1)[n+]2=O	> 100		> 100		> 34.4	> 48.1	> 100	19.7	> 59.5	
CC(C)(C)C1(COC(=O)c2ccc(N)cc2)COC1	> 100	> 100	> 100	> 100	> 100	> 100	> 100	> 100	> 100	
NC(=O)c1ccc2c(c1)S(=O)(=O)c1ccccc1C2=O	> 100	> 100	> 100	> 100	> 100	> 100	> 100	> 100	> 100	
CC(NC(=O)C(NC(=O)OC(C)(C)C)C(C)C)C(=O)N1CCCC1C(=O)NCC(=O)NC(C(=O)NCC(=O)OCc1ccccc1)C(C)C (stereo not given) (Boc-VAPGVG-OBn; configuration not given here)	> 100	> 100	> 100	> 100	> 100	> 100	> 100		> 100	
Cc1nc2ccc(S(=O)(=O)O)cc2c(=O)n1-c1ccc(C(=O)NN2C(=O)C(Cl)C2c2ccccc2O)cc1 (stereo not given)	> 100	> 100	> 100	> 100	> 100	> 100	> 100	> 100	> 100	
